Experiment [1] has as its system ACE. The following applies: cited from earlier work; for ACE-inhibitory activity, in words: shark meat hydrolysates, ref [16] Hao Wu et al. The source says:
(§1) Marine organisms, which are rich in unique bioactive proteins, have been widely used in the search for ACE-inhibitory peptides. According to previous studies, many novel ACE-inhibitory peptides with efficient antihypertensive effects were obtained from marine organisms. […] Liu et al. investigated the antihypertensive activity of a protein hydrolysate that was made from Rhopilema esc ...

The test system of experiment [2] is spontaneously hypertensive rats (SHRs). In words: Antihypertensive effect in SHRs, intravenous, tail-cuff SBP/DBP. The class given is in vivo. As to conditions: 5 mg/kg intravenous single dose. On the procedure: Animals were obtained from Vital River Laboratory Animal Technology (Beijing, China), who also performed the blood pressure measurements in spontaneously hypertensive rats (SHRs) with a tail systolic blood pressure (SBP) of over 180 mmHg. Animals were fed a normal diet, and tap water was freely available. SHRs (11 weeks, 240 ± 20 g body weight) were raised at room temperature (25 °C) under a 12 h light/dark cycle. […] Captopril (5 mg/kg) was used as a positive control, and the negative control group was injected with an equal volume of saline. The SBP and DBP of the rats were measured using the tail-cuff method before administration and at 2, 4, 6, 12, and 24 h post-administration, using a BP-98A blood pressure monitor (Softron Biotechnology, Beijing, China) after heating the SHRs at 37 °C for 30 min in a warming chamber. All the rats received humane care conforming to the National Institutes of Health Guide for Care and Use of Laboratory Animals. This study was approved by the Ethics Committee of Guangdong medical laboratory animal center (No. 20211001).
Statistical analysis was performed using SPSS 19.0 software ([…]). Experimental data are presented as means ± standard deviations (SD) and were statistically evaluated using one-way analysis of variance (ANOVA) with Duncan’s test. Origin 9.0 (OriginLab, Northampton, MA, USA) software was used to process the data.

Experiment [3] concerns SHRs. As to conditions: oral administration in SHRs; ref [17] Lee et al.; cited from earlier work.
Text: as §1

In experiment [4] the target is T1, angiotensin-I-converting enzyme (ACE, EC 3.4.15.1, from rabbit lung) (rabbit) (UniProt P12822).
T1 sequence: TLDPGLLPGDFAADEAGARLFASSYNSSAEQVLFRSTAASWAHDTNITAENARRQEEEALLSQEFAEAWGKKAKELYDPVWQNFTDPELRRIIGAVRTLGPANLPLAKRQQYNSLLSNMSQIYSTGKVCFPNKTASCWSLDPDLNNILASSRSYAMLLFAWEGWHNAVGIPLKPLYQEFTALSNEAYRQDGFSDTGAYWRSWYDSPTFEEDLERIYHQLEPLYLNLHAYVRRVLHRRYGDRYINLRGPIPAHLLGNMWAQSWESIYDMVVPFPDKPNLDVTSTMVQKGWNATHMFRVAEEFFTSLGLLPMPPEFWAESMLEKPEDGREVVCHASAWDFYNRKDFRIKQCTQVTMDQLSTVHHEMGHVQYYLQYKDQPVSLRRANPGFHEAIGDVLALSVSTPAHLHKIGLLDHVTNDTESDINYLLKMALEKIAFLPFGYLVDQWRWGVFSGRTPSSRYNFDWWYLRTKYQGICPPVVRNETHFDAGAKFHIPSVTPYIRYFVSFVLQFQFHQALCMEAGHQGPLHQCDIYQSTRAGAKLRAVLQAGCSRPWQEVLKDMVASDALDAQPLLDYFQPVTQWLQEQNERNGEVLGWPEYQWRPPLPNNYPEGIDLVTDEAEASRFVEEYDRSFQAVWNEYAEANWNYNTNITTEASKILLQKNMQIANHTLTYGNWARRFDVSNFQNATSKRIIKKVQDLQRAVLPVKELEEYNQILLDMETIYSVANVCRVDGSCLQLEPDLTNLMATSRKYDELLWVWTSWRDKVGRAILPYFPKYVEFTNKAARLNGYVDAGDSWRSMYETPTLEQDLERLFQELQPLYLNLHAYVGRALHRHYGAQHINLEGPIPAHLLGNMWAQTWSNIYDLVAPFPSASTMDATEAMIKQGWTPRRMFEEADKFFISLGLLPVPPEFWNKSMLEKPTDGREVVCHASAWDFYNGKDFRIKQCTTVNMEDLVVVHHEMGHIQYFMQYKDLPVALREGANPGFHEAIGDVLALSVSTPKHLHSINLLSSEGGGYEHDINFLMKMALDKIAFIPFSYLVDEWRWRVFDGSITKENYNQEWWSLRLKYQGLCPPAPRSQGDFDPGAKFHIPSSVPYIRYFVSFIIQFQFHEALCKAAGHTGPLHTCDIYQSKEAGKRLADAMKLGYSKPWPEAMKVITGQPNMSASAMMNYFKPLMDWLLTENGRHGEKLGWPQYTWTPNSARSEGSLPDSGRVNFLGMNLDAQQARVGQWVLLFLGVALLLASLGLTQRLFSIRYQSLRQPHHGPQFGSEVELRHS

Where [5] appears, read: ref [14] Ghassem et al., read-out: IC50, ACE-inhibitory peptides from snakehead fish.

Read-outs that look alike come from different tables or passages of the source.

For the molecule Met-Phe, the “ACE-inhibitory activity, in words” value in experiment [1] was “high ACE-inhibitory activity”.

Regarding `C[C@H](CS)C(=O)N1CCC[C@H]1C(=O)O` [Captopril, captopril], the “systolic blood pressure (SBP) at 4 h” value in experiment [2] (4 h, p < 0.05) worked out at 151 mmHg. Also, in experiment [2] (24 h), the “systolic blood pressure (SBP) at 24 h” value turned out to be 161 mmHg. For the same molecule, the “systolic blood pressure (SBP), starting value” in experiment [2] (value from which SBP fell) is listed as 190 mmHg.

Consider Cys-Phe, for which the “ACE-inhibitory activity, in words” value in experiment [1] is listed as “high ACE-inhibitory activity”.

In the case of Glu-Tyr, the “ACE-inhibitory activity, in words” value in experiment [1] is “high ACE-inhibitory activity”.

For the molecule Phe-Glu, the “ACE-inhibitory activity, in words” value in experiment [1] was “high ACE-inhibitory activity”.

In general, IC50 refers to the concentration that inhibits the measured activity by half. With YSMYPP, in experiment [1] (setting [5]), the IC50 was 2800 nM.

For the molecule “Gly-Asp-Leu-Gly-Lys-Thr-Thr-Thr-Val-Ser-Asn-Trp-Ser-Pro-Pro-Lys-Try-Lys-Asp-Thr-Pro [PTFP]”, the “ACE inhibition mode, tuna frame peptide” value in experiment [1] (ref [17] Lee et al.) was “non-competitive inhibitor”. In experiment [1] (ref [17] Lee et al., read-out: IC50, ACE-inhibitory peptide from tuna frame protein), the IC50 is 11300 nM. The “antihypertensive effect, in words” value in experiment [3] is given as “has an antihypertensive effect after oral administration in SHRs”.

For the molecule LYPPP, the 50% inhibitory concentration (IC50) in experiment [1] (setting [5]) was 1300 nM.

PPLLFAAL [PPLLFAAL (Pro-Pro-Leu-Leu-Phe-Ala-Ala-Leu)] displayed an ACE-inhibitory activity (hydrolysis of hippuryl-L-histidyl-L-leucine to hippuric acid, RP-HPLC at 220 nm, 37 °C, pH 8.3, 0.3 M NaCl), IC50 of the synthetic peptide in experiment [4] of 28 μmol·L^−1.

These data come from PMC8705986, “A Novel Angiotensin-I-Converting Enzyme (ACE) Inhibitory Peptide from Takifugu flavidus” (Marine Drugs, 2021).
